These results are taken from paper doi:10.1101/2025.09.30.679521v1, “Crystallographic characterisation and development of bi-substrate inhibitors of coronavirus nsp14 methyltransferase” (biorxiv, 2025).

One series in a line: in vitro. The conditions noted are these: liver microsomes; Mouse liver microsomes; read-out: Mouse liver Mic T1/2 / min. On the set-up: mouse liver microsomal stability. The source says:
We initiated our structure-activity relationship (SAR) studies by investigating various replacements for the benzothiazole group, compounds 2-17, Table 1. […] Relatively flat SAR is observed across this subset of compounds, indeed a 6,5 or 6,6 aromatic system with the appropriate connectivity as compound 1 display relatively similar potencies. […] In general, the mouse microsomal clearance was rather low for this set of molecules, with no significant instabilities introduced, with perhaps the exception of compound 4. With no significant advantages in either potency or mouse microsomal clearance (Table S2) identified for this subset, the benzothiazole was taken forward into subsequent SAR studies. Table 2. Enzymatic inhibition against SARS-CoV-2 nsp14, human RNMT, CHI-logD and mouse microsomal stability.

The target of another series is T1, SARS-CoV-2 nsp14 (Severe acute respiratory syndrome coronavirus 2, UniProt P0DTD1).
T1 construct: gene rep
Briefly: RapidFire MS methyltransferase assay. Format: biochemical. The source says: RapidFire MS methyltransferase assay on SARS-CoV-2 nsp14

A further series has as its target human RNMT (Homo sapiens, UniProt O43148). Briefly: RNMT methyltransferase assay (Gray et al.). The format is biochemical. The source says: RNMT methyltransferase assay (Gray et al.) on human RNMT
The nature of series [1]: physchem.
The target of another series is T2, HCoV-229E nsp14 (Human coronavirus 229E, UniProt P0C6X1).
T2 construct: gene rep
T2 sequence (P0C6X1 5593-6110): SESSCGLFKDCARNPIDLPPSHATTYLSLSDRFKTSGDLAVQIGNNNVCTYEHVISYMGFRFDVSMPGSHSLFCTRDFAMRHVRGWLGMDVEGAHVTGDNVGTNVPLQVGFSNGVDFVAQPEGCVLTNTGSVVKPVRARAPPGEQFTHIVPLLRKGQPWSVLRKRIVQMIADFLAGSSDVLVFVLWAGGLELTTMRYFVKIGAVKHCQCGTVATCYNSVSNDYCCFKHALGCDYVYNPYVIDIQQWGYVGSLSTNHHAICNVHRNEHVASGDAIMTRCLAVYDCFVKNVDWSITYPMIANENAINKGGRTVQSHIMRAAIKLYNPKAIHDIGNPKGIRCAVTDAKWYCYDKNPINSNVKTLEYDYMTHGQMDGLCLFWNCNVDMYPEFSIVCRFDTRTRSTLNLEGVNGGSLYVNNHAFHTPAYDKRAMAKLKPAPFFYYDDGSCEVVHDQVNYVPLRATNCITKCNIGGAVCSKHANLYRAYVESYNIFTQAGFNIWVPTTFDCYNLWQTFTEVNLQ
Kind of series: RapidFire MS methyltransferase assay. The format is biochemical. The source says:
RapidFire MS methyltransferase assay on HCoV-229E nsp14

The next series concerns the target HCoV-NL63 nsp14 (Human coronavirus NL63, UniProt P0C6X5). Kind of series: RapidFire MS methyltransferase assay. The format is biochemical. The source says: RapidFire MS methyltransferase assay on HCoV-NL63 nsp14
The nature of series [2]: physchem. The source holds these as a separate data set.

The structures appear in SMILES notation. Like-named read-outs stand apart in the source and are kept apart here. A value given as a limit tells only on which side of the number the result lay.

Sequence of HCoV-NL63 nsp14 (P0C6X5 5568-6085): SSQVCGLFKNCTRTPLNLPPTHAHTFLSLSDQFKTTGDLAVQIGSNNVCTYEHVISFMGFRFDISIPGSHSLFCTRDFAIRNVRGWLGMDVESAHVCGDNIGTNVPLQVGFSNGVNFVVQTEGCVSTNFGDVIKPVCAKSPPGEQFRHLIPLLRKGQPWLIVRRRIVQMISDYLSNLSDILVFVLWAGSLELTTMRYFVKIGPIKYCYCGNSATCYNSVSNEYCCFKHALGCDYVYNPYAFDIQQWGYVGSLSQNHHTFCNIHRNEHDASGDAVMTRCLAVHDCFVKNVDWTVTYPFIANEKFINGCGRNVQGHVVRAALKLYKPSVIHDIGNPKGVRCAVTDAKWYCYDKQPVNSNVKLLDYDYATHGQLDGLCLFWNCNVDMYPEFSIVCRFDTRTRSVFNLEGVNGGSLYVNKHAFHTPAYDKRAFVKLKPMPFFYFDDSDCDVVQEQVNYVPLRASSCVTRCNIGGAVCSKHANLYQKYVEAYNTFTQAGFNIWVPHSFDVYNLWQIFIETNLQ
Sequence of human RNMT (O43148 whole entry): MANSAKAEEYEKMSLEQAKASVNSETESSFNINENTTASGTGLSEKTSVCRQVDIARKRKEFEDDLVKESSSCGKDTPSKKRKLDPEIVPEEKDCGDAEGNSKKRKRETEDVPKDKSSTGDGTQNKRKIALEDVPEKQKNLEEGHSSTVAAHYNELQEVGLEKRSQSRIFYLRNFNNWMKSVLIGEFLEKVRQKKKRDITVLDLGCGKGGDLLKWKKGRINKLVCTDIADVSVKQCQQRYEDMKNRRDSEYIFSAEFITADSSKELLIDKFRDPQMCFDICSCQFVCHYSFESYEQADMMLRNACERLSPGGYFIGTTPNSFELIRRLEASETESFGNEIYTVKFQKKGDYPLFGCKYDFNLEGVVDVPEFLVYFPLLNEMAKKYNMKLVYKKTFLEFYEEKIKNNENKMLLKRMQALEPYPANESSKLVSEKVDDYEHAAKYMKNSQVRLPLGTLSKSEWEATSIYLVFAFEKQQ

In the case of `Cc1ccc2sc(SC[C@H]3O[C@@H](n4cnc5c(N)ncnc54)[C@H](O)[C@@H]3O)nc2c1` [compound 3], the half-life in “in vitro” was 25.7 min. Further, the IC50 (usually the midpoint of a concentration-inhibition curve) is 1.2 ± 0.15 µM against SARS-CoV-2 nsp14 and > 100 µM on human RNMT. For the same compound, the logD (usually the decadic logarithm of the distribution of all forms, ionised or not, between an organic phase and buffer at a given pH) in “physchem [1]” was 1.6.
Take `CCNC(=O)NCCSC[C@H]1O[C@@H](n2cnc3c(N)ncnc32)[C@H](O)[C@@H]1O` [compound 5]: the half-life in “in vitro” is > 30 min. The IC50 at SARS-CoV-2 nsp14 (read-out: IC50) was 1.9 ± 0.3 µM; against human RNMT, > 100 µM. Further, the logD in the series “physchem [1]” was -0.2.
Consider `Nc1ncnc2c1ncn2[C@@H]1O[C@H](CSc2nccs2)[C@@H](O)[C@H]1O` [compound 11, (2R,3R,4S,5S)-2-(6-Aminopurin-9-yl)-5-(thiazol-2-ylsulfanylmethyl) tetrahydrofuran-3,4-diol], for which, in the series “in vitro”, the half-life is > 30 min.
Take `Nc1ncnc2c1ncn2[C@@H]1O[C@H](CSc2nccs2)[C@@H](O)[C@H]1O` [compound 11]: the IC50 was > 100 µM on SARS-CoV-2 nsp14 (read-out: IC50), > 50 µM on HCoV-229E nsp14 (read-out: IC50), > 50 µM at HCoV-NL63 nsp14 (read-out: IC50) and > 100 µM on human RNMT. In the series “physchem [1]”, the logD was 0.3.
`Nc1ncnc2c1ncn2[C@@H]1O[C@H](CSc2cccn3cncc23)[C@@H](O)[C@H]1O` [compound 12]: the IC50 at SARS-CoV-2 nsp14 (read-out: IC50) was found to be 15 ± 12 µM; on HCoV-229E nsp14 (read-out: IC50) it was 0.79 ± 0.06 µM; on HCoV-NL63 nsp14 (read-out: IC50), 9.5 ± 2.3 µM; against human RNMT it was 9.3 µM. The compound also showed a logD in the series “physchem [1]” of 0.3.
For `Nc1ncnc2c1ncn2[C@@H]1O[C@H](CSc2nc3ccccc3o2)[C@@H](O)[C@H]1O` [compound 14, (2R,3R,4S,5S)-2-(6-Amino-9H-purin-9-yl)-5-((benzo[d]oxazol-2-ylthio)methyl) tetrahydrofuran-3,4-diol], the half-life in the series “in vitro” was > 30 min.
For `Nc1ncnc2c1ncn2[C@@H]1O[C@H](CSc2nc3ccccc3o2)[C@@H](O)[C@H]1O` [compound 14], the IC50 at SARS-CoV-2 nsp14 (read-out: IC50) was 0.67 ± 0.02 µM; at HCoV-229E nsp14 (read-out: IC50), 0.95 ± 0.02 µM; on HCoV-NL63 nsp14 (read-out: IC50), 0.66 ± 0.4 µM; against human RNMT it was > 100 µM. Moreover, the logD in “physchem [2]” came to 1.
For the compound `Nc1ncnc2c1ncn2[C@@H]1O[C@H](CSc2nc3ccccc3[nH]2)[C@@H](O)[C@H]1O` [compound 15, (2S,3S,4R,5R)-2-(((1H-Benzo[d]imidazol-2-yl)thio)methyl)-5-(6-amino-9H-purin-9-yl) tetrahydrofuran-3,4-diol], the half-life in “in vitro” is > 30 min.
On to `Nc1ncnc2c1ncn2[C@@H]1O[C@H](CSc2nc3ccccc3[nH]2)[C@@H](O)[C@H]1O` [compound 15], for which the IC50 at SARS-CoV-2 nsp14 (read-out: IC50) is 0.59 ± 0.11 µM; at HCoV-229E nsp14 (read-out: IC50), 0.86 ± 0.2 µM; on HCoV-NL63 nsp14 (read-out: IC50) it was 0.48 ± 0.1 µM; on human RNMT, > 100 µM. Moreover, in “physchem [2]”, the logD amounted to 0.3.
Turning to `Nc1ncnc2c1ncn2[C@@H]1O[C@H](CSc2cccc3cn[nH]c23)[C@@H](O)[C@H]1O` [compound 16], the IC50 on SARS-CoV-2 nsp14 (SAM and RNA cap substrate at KM (SAM 1.0 µM), unreliable (footnote: one IC50 measured > 100 µM)) was 79 ± 18 µM; against human RNMT, > 100 µM. In “physchem [2]”, the logD was 0.7.
As for `Nc1ncnc2c1ncn2[C@@H]1O[C@H](CSc2ccn3cncc3c2)[C@@H](O)[C@H]1O` [compound 17, (2R,3R,4S,5S)-2-(6-Aminopurin-9-yl)-5-(imidazo[1,5-a]pyridine-7-ylsulfanylmethyl) tetrahydrofuran-3,4-diol], the half-life in “in vitro” came out at 11.1 min.
With `Nc1ncnc2c1ncn2[C@@H]1O[C@H](CSc2ccn3cncc3c2)[C@@H](O)[C@H]1O` [compound 17], the IC50 came out at 6.9 ± 4.6 µM on SARS-CoV-2 nsp14 (read-out: IC50), 1.1 ± 0.15 µM at HCoV-229E nsp14 (read-out: IC50), 6.4 ± 1.6 µM at HCoV-NL63 nsp14 (read-out: IC50) and 31.1 µM on human RNMT. Moreover, in “physchem [2]”, the logD came out at 0.1.
For `CNc1ncnc2c1ncn2[C@@H]1O[C@H](CSc2nc3ccccc3s2)[C@@H](O)[C@H]1O` [compound 18, (2S,3S,4R,5R)-2-(1,3-Benzothiazol-2-ylsulfanylmethyl)-5-[6-(methylamino)purin-9-yl]tetrahydrofuran-3,4-diol], in the series “in vitro”, the half-life amounted to 19.7 min.
Consider `Nc1ncnc2c1ccn2[C@@H]1O[C@H](CSc2nc3ccccc3s2)[C@@H](O)[C@H]1O` [compound 27], for which, in the series “in vitro”, the half-life was > 30 min. For the same compound, the IC50 on SARS-CoV-2 nsp14 (read-out: IC50) is 0.055 ± 0.02 µM; at HCoV-229E nsp14 (read-out: IC50), 0.041 ± 0.004 µM; on HCoV-NL63 nsp14 (read-out: IC50), 0.039 ± 0.006 µM; on human RNMT it was > 100 µM. The logD in the series “physchem [2]” came to 1.6.
Take `Nc1ncnc2c1ccn2[C@@H]1C[C@H](CSc2nc3ccccc3s2)[C@@H](O)[C@H]1O` [compound 28]: the half-life in “in vitro” was > 30 min. Further, the logD in “physchem [2]” amounted to 1.8.
As for `N#Cc1cn([C@@H]2O[C@H](CSc3nc4ccccc4s3)[C@@H](O)[C@H]2O)c2ncnc(N)c12` [compound 29], the half-life in the series “in vitro” is 12.1 min. For the same compound, the IC50 against SARS-CoV-2 nsp14 is 0.17 ± 0.02 µM; against HCoV-229E nsp14, 0.1 ± 0.007 µM; against HCoV-NL63 nsp14, 0.073 ± 0.026 µM; against human RNMT, > 100 µM. This compound came in with a logD in the series “physchem [2]” of 1.8.
As for `C#Cc1cn([C@@H]2O[C@H](CSc3nc4ccccc4s3)[C@@H](O)[C@H]2O)c2ncnc(N)c12` [compound 30], the half-life in the series “in vitro” was found to be 10.1 min. Also, the IC50 against SARS-CoV-2 nsp14 is 0.054 ± 0.01 µM; at HCoV-229E nsp14 it was 0.033 ± 0.002 µM; at HCoV-NL63 nsp14, 0.029 ± 0.009 µM; against human RNMT, > 100 µM. The logD in “physchem [2]” came out at 2.
Turning to `CCc1cn([C@@H]2O[C@H](CSc3nc4ccccc4s3)[C@@H](O)[C@H]2O)c2ncnc(N)c12` [compound 31, (2R,3R,4S,5S)-2-(4-amino-5-ethyl-pyrrolo[2,3-d]pyrimidin-7-yl) -5-(1,3-benzothiazol-2-ylsulfanylmethyl)tetrahydrofuran-3,4-diol], in “in vitro”, the half-life turned out to be 3.9 min.
As for `CCc1cn([C@@H]2O[C@H](CSc3nc4ccccc4s3)[C@@H](O)[C@H]2O)c2ncnc(N)c12` [compound 31], the IC50 at SARS-CoV-2 nsp14 (read-out: IC50) is 0.25 ± 0.2 µM; on HCoV-229E nsp14 (read-out: IC50), 0.12 ± 0.01 µM; at HCoV-NL63 nsp14 (read-out: IC50), 0.052 ± 0.009 µM; on human RNMT, > 100 µM. The compound also displayed a logD in “physchem [2]” of 2.1.
On to `Nc1ncnn2c([C@@H]3O[C@H](CSc4nc5ccccc5s4)[C@@H](O)[C@H]3O)ccc12` [compound 35, (2S,3R,4S,5S)-2-(4-Aminopyrrolo[2,1-f][1,2,4]triazin-7-yl)-5-(1,3-benzothiazol-2-ylsulfanylmethyl)tetrahydrofuran-3,4-diol], for which the half-life in the series “in vitro” is > 30 min.
As to `Nc1ncnn2c([C@@H]3O[C@H](CSc4nc5ccccc5s4)[C@@H](O)[C@H]3O)ccc12` [compound 35], the IC50 stood at 0.37 ± 0.13 µM on SARS-CoV-2 nsp14 (read-out: IC50), 0.19 ± 0.04 µM at HCoV-229E nsp14 (read-out: IC50) and 0.1 ± 0.02 µM at HCoV-NL63 nsp14 (read-out: IC50). The logD in “physchem [2]” was found to be 1.5.
Regarding `Cc1ccc2nc(SC[C@H]3O[C@@H](c4ccc5c(N)ncnn45)[C@H](O)[C@@H]3O)sc2c1` [compound 36, (2S,3R,4S,5S)-2-(4-Aminopyrrolo[2,1-f][1,2,4]triazin-7-yl)-5-[(6-methyl-1,3-benzothiazol-2-yl)sulfanylmethyl]tetrahydrofuran-3,4-diol], in “in vitro”, the half-life amounted to 18 min.
On to `Cc1ccc2nc(SC[C@H]3O[C@@H](c4ccc5c(N)ncnn45)[C@H](O)[C@@H]3O)sc2c1` [compound 36], for which the IC50 at SARS-CoV-2 nsp14 (read-out: IC50) came out at 0.34 ± 0.14 µM. In the series “physchem [2]”, this compound registered a logD of 1.9.
As for `Nc1ncnn2c([C@@H]3O[C@H](CSc4ccc5ccccc5c4)[C@@H](O)[C@H]3O)ccc12` [compound 37, (2S,3R,4S,5S)-2-(4-Aminopyrrolo[2,1-f][1,2,4]triazin-7-yl)-5-(2-naphthylsulfanylmethyl) tetrahydrofuran-3,4-diol], in “in vitro”, the half-life came to 13.6 min.
Take `Nc1ncnn2c([C@@H]3O[C@H](CSc4ccc5ccccc5c4)[C@@H](O)[C@H]3O)ccc12` [compound 37]: the IC50 on SARS-CoV-2 nsp14 (read-out: IC50) was found to be 0.2 ± 0.07 µM. Moreover, the logD in the series “physchem [2]” came out at 2.2.
For `Nc1ncnn2c([C@@H]3O[C@H](CSc4ccc5ccccc5n4)[C@@H](O)[C@H]3O)ccc12` [compound 38, (2S,3R,4S,5S)-2-(4-Aminopyrrolo[2,1-f][1,2,4]triazin-7-yl)-5-(2-quinolylsulfanylmethyl) tetrahydrofuran-3,4-diol], in the series “in vitro”, the half-life was > 30 min.
Turning to `Nc1ncnn2c([C@@H]3O[C@H](CSc4ccc5ccccc5n4)[C@@H](O)[C@H]3O)ccc12` [compound 38], at SARS-CoV-2 nsp14 (read-out: IC50), the IC50 worked out at 0.68 ± 0.11 µM. The logD in “physchem [2]” was determined as 1.7.
For the compound `Nc1ncnn2c([C@@H]3O[C@H](CCc4nc5ccccc5s4)[C@@H](O)[C@H]3O)ccc12` [compound 39, (2S,3R,4S,5R)-2-(4-Aminopyrrolo[2,1-f][1,2,4]triazin-7-yl)-5-[2-(1,3-benzothiazol-2-yl)ethyl]tetrahydrofuran-3,4-diol], the half-life in the series “in vitro” is > 30 min.
Take `Nc1ncnn2c([C@@H]3O[C@H](CCc4nc5ccccc5s4)[C@@H](O)[C@H]3O)ccc12` [compound 39]: the IC50 at SARS-CoV-2 nsp14 (read-out: IC50) turned out to be 0.5 ± 0.4 µM; on HCoV-229E nsp14 (read-out: IC50), 2.3 ± 0.05 µM; on HCoV-NL63 nsp14 (read-out: IC50) it was 0.76 ± 0.3 µM. For the same compound, the logD in “physchem [2]” worked out at 1.3.
